According to patent US10758531B2, “Regimens and compositions for treating HIV infections and AIDS” (ViiV Healthcare Company, priority 2016, dated 2020):

What was measured:
CYP3A4 = CYP3A4 (Homo sapiens, UniProt P08684); conditions: cited from earlier work
UGT1A1 = biological target: T1, UGT1A1 (Homo sapiens, UniProt P22309); conditions: cited from earlier work
T1 sequence (P22309 26-533): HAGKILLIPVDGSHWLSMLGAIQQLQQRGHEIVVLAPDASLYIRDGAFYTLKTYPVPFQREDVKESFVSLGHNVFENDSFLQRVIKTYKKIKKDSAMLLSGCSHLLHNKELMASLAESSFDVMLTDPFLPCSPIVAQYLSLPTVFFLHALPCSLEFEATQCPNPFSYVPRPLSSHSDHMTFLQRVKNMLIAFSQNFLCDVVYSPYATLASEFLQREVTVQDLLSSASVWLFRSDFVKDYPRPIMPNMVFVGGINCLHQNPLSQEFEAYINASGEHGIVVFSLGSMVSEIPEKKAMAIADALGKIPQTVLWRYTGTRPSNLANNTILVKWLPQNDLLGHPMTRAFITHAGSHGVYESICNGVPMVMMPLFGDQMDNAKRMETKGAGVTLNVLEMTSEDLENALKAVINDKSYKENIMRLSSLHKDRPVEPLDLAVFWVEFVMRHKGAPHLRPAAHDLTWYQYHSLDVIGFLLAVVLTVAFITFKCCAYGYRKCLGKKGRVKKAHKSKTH

UGT1A3 = biological target: T2, UGT1A3 (Homo sapiens, UniProt P35503); conditions: in vitro; cited from earlier work
T2 sequence (P35503 29-534): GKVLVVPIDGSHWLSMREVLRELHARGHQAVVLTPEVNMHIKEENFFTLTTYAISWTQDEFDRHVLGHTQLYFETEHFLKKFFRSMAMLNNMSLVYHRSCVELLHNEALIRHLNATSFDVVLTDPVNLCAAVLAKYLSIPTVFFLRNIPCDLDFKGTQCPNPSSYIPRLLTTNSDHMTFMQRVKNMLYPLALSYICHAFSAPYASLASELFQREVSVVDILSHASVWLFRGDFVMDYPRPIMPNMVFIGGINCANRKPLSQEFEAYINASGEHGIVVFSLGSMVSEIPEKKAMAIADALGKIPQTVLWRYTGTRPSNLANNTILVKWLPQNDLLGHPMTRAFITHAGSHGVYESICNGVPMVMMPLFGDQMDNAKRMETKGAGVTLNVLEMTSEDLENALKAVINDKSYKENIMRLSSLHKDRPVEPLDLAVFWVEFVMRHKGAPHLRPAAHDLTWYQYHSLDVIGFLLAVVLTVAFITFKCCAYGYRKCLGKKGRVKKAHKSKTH

UGT1A9 = biological target: T3, UGT1A9 (Homo sapiens, UniProt O60656); conditions: in vitro; cited from earlier work
T3 sequence (O60656 26-530): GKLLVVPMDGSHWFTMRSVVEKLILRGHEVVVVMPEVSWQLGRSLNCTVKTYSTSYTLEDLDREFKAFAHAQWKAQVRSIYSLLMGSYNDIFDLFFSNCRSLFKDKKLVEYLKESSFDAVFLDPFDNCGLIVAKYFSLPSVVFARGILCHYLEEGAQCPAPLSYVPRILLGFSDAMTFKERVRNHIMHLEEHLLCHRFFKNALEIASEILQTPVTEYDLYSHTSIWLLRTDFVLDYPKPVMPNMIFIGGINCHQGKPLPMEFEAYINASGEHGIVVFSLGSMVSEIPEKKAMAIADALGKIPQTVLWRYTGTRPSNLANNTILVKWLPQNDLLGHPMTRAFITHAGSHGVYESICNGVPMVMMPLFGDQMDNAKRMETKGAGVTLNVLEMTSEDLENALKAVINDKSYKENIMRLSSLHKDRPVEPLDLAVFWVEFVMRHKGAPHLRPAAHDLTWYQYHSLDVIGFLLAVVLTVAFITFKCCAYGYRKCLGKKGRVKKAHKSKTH

BCRP = biological target: T4, BCRP (Homo sapiens, UniProt Q9UNQ0); conditions: in vitro; cited from earlier work
T4 sequence (Q9UNQ0 1-655): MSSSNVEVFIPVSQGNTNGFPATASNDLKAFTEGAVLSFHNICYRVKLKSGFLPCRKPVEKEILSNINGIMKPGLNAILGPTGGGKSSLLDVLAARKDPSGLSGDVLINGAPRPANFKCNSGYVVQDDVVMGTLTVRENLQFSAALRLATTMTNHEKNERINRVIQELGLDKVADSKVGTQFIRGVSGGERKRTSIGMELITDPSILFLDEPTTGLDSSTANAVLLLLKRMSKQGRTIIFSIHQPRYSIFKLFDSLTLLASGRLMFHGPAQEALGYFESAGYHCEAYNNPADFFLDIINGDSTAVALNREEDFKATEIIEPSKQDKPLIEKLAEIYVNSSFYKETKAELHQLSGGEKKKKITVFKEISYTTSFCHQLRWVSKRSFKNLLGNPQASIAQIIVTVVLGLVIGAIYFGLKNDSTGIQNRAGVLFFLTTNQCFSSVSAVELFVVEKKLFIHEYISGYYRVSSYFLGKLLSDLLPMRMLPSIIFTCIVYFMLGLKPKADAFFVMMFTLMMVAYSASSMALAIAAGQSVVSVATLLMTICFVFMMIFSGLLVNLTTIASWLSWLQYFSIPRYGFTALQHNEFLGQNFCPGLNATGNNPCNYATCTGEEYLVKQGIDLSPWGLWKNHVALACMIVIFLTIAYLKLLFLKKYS

P-gp = P-gp (Homo sapiens, UniProt P08183); conditions: in vitro; cited from earlier work
[1] = Drug-drug interactions: effect on concentration on co-administration (Table 1)
[2] = biological target: T5, human cellular DNA polymerase α (Homo sapiens, UniProt P09884); conditions: cited from earlier work
T5 sequence (P09884 1-1462): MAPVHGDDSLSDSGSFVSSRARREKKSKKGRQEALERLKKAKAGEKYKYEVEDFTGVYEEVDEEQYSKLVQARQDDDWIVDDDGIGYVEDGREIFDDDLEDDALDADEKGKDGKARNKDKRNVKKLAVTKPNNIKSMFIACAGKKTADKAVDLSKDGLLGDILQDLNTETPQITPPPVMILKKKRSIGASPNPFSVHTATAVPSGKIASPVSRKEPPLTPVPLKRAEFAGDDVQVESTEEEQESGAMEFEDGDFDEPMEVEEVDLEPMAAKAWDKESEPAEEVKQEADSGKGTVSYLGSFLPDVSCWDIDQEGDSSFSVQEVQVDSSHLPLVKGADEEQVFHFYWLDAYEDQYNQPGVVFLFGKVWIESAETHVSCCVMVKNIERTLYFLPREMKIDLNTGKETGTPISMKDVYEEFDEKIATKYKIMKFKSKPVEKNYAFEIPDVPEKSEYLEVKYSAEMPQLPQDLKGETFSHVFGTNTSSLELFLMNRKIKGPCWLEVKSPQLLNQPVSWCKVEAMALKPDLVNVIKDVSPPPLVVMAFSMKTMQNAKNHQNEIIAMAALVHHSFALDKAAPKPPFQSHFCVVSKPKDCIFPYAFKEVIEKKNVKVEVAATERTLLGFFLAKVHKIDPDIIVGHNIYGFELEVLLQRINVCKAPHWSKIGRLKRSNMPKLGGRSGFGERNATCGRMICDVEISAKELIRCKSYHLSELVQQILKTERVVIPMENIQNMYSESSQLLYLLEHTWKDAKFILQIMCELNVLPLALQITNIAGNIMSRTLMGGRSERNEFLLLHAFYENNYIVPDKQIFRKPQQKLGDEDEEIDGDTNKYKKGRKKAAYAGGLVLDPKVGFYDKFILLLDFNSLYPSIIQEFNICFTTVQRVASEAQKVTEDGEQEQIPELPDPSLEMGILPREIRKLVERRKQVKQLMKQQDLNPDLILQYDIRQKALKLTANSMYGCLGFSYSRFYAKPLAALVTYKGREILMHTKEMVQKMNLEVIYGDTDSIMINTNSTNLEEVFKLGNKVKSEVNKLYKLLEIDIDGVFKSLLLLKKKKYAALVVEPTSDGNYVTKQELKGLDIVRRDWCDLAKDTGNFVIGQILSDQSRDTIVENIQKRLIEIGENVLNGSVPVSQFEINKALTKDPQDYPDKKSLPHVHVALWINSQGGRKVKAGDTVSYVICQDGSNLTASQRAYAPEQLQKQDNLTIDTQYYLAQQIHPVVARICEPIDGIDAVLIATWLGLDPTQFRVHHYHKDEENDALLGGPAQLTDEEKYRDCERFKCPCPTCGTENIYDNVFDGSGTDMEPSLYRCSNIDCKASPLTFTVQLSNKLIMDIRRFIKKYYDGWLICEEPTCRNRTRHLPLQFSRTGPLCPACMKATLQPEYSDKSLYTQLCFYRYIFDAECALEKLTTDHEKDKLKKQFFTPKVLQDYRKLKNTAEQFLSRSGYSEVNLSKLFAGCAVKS

[3] = biological target: human cellular DNA polymerase β (Homo sapiens, UniProt P06746); conditions: cited from earlier work
[4] = biological target: T6, human cellular DNA polymerase γ (Homo sapiens, UniProt P54098); conditions: cited from earlier work
T6 sequence (P54098 1-1239): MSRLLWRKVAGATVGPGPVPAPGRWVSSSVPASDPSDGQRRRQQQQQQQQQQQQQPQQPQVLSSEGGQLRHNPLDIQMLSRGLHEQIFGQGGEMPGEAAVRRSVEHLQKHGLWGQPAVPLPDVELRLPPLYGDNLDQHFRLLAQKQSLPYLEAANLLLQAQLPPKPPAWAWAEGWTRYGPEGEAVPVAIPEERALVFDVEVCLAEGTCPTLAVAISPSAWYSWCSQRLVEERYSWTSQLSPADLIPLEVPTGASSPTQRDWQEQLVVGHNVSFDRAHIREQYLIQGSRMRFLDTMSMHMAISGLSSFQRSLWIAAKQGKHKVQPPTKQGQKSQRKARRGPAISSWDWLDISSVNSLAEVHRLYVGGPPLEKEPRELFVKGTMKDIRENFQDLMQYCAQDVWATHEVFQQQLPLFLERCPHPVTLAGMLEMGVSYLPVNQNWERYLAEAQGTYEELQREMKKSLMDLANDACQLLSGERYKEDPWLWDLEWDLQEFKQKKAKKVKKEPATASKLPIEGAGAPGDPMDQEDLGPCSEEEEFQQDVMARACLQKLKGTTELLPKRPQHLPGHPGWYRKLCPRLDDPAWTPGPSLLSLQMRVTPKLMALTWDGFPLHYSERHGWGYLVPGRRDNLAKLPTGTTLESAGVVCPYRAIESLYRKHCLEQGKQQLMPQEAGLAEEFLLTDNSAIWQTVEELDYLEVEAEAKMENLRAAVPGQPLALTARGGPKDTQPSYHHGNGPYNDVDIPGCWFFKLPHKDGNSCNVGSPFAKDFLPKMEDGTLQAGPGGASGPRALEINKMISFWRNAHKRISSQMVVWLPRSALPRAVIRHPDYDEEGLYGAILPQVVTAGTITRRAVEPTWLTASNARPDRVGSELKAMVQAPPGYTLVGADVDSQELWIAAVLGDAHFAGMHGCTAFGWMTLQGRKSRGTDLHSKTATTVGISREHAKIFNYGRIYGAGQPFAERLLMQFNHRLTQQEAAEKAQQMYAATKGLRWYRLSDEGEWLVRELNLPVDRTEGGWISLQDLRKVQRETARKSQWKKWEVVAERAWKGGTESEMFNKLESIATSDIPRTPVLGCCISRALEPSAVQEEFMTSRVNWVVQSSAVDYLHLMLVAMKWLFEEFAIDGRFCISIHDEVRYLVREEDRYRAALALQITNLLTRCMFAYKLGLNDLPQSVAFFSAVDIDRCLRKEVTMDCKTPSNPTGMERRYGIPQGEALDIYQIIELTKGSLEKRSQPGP

CYP3A = conditions: cited from earlier work
CYP enzymes = conditions: rilpivirine 25 mg once daily; cited from earlier work

P-gp, sequence (P08183 whole entry): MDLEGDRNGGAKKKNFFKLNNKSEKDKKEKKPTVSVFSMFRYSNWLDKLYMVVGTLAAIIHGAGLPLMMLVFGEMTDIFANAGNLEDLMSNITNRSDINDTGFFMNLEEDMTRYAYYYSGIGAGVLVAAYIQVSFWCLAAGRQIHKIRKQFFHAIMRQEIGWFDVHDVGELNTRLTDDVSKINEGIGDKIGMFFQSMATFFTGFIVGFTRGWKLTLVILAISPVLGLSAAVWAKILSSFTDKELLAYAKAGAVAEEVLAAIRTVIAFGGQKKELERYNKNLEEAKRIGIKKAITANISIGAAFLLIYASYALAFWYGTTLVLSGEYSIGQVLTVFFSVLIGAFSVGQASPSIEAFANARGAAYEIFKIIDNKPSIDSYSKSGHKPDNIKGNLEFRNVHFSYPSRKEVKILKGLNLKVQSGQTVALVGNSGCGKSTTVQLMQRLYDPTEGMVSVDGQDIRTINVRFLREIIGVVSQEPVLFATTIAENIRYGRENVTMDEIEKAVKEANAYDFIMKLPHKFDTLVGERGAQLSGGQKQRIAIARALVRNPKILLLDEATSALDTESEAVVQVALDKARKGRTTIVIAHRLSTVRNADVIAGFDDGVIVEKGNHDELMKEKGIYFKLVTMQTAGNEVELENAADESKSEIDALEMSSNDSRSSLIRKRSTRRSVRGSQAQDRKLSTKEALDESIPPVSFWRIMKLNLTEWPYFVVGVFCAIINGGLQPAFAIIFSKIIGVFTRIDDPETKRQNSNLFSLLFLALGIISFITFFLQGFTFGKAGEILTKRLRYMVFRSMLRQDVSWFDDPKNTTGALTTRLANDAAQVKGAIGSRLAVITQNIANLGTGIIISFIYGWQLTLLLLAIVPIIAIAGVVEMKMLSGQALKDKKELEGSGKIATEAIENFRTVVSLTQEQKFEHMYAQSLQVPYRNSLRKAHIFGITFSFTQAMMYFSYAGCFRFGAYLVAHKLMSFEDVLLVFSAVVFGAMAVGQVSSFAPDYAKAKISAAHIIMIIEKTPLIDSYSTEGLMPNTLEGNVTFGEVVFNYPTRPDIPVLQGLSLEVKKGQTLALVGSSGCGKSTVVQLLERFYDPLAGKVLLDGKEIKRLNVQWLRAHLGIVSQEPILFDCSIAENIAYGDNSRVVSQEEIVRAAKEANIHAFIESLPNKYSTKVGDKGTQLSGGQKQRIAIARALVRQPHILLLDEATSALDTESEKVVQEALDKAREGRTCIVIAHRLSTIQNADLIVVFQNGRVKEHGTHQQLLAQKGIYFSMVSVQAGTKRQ
CYP3A4, sequence (P08684 whole entry): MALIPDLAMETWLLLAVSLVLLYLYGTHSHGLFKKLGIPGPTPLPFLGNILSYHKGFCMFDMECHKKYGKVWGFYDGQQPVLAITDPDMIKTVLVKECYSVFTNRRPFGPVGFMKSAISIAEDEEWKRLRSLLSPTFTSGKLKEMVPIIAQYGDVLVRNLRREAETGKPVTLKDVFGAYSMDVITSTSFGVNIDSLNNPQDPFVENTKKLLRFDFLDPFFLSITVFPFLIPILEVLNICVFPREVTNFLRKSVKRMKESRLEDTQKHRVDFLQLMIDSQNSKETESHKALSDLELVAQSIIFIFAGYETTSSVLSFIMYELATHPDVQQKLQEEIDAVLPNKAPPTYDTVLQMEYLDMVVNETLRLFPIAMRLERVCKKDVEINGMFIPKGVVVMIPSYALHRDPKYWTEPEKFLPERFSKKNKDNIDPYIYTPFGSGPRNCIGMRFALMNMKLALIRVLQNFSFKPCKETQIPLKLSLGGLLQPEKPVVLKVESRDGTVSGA

For `O=C(NCc1c(F)cc(F)cc1F)c1cn2c(c(O)c1=O)C(=O)N1[C@H]3CC[C@H](C3)O[C@@H]1C2` [Bictegravir, (2R,5S,13aR)-8-hidroxi-7,9-dioxo-N-[(2,4,6-trifluorofenil)metil]-2,3,4,5,7,9,13,13a-octahidro-2,5-metanopirido [1′,2′:4,5]pirazino[2,1-b][1,3]oxazepina-10-carboxamida], the “Metabolic clearance through CYP3A4” value (CYP3A4) is given as “metabolically cleared”, the “Metabolic clearance through UGT1A1” value (UGT1A1) is given as “metabolically cleared” and the “Substrate of UGT1A3” value (UGT1A3) is given as “substrate”. For the same compound, the “Substrate of UGT1A9” value (UGT1A9) was “substrate”, the “Substrate of BCRP” value (BCRP) was “substrate” and the “Substrate of P-gp” value (P-gp) was “substrate”.
For `CN(C)C(=N)N=C(N)N` [Metformin], the “Effect on Concentration” value ([1]; concomitant use of metformin and a composition of the invention) was “↑Metformin”.
For `CCC(=O)C(CC(C)N(C)C)(c1ccccc1)c1ccccc1` (centres unmarked) [Methadone], the “Effect on Concentration” value ([1]; concomitant use of methadone and a composition of the invention) was “↔Methadone”.
With `CO[C@H]1/C=C/O[C@@]2(C)Oc3c(C)c(O)c4c(c3C2=O)C2=NC3(CCN(CC(C)C)CC3)NC2=C(NC(=O)/C(C)=C\C=C\[C@H](C)[C@H](O)[C@@H](C)[C@@H](O)[C@@H](C)[C@H](OC(C)=O)[C@@H]1C)C4=O` [Rifabutin] the “Effect on Concentration” value ([1]; concomitant use of rifabutin and a composition of the invention) was “↔Rifabutin”.
In the case of `Cc1cc(/C=C/C#N)cc(C)c1Nc1ccnc(Nc2ccc(C#N)cc2)n1` [Rilpivirine, 4-[[4-[[4-[(E)-2-cyanoethenyl]-2,6-dimethylphenyl]amino]-2-pyrimidinyl]amino]benzonitrile], the “Inhibition of human cellular DNA polymerase α” value [2] is given as “does not inhibit”, the “Inhibition of human cellular DNA polymerase β” value [3] is given as “does not inhibit” and the “Inhibition of human cellular DNA polymerase γ” value [4] is given as “does not inhibit”. For the same compound, the “Metabolism by CYP3A” value (CYP3A) was “primarily metabolized” and the “Effect on the exposure of medicinal products metabolized by CYP enzymes” value (CYP enzymes) was “not likely to have a clinically relevant effect”.
